Measured values taken from US12329158B2, “Large-scale methods of uniformly coating packaging surfaces with a volatile antimicrobial to preserve food freshness” (AGROFRESH INC., priority 2013, dated 2025).
In brackets after ≈: the same amount, converted by molar mass.

Key:
Botrytis cinerea [1] = assay: Dose response, sprayed clamshells; strawberries (Example 4); type: in vivo; conditions: spraying
Experimental: Five milligrams of Compound A was dissolved in 1 ml of ethanol prior to being uniformly administered to the interior of the clamshell by painting or spraying, and then dried for 5 minutes. After coating the clamshells with Compound A using various application techniques (i.e., sublimation, spraying, or painting), eight ethanol-washed strawberries were placed in the clamshell with stem end facing downwards. Each strawberry fruit was wounded using a T15 screwdriver tip to a uniform depth of eight mm (8 mm). […] Uninoculated strawberries were removed from their commercial package, and directly transferred into treated clamshells without any washing or inoculation steps.
Treated clamshells lids were closed, and then placed at 1° C. for an initial time period of 5 days. Clamshells were then removed from low temperature, and held for a second time period of 6 days at room temperature where the point of inoculation on the strawberry fruits was assessed for indication of disease incidence reported as a percentage (%). Severity of disease incidence was also reported.
This in vivo assay was used to evaluate the ability of different concentrations of Compound A to volatilize from clamshell in order to control or inhibit fruit infection by pathogenic microorganism, Botrytis cinerea. This experiment was conducted exactly as described in Example 1, with a few exceptions. After equilibrating the clamshell overnight at 21° C., Compound A was administered to the clamshells by spraying only. Compound A was sprayed onto the surface of the clamshells at a final treatment rate of 5 mg/clamshell or 1 mg/clamshell. The clamshells were then permitted to dry for 5 minutes. Strawberries were inoculated with Botrytis cinerea, placed within the clamshells for the initial time period (i.e., 5 days), and assessed for disease incidence and severity over the second time period (i.e., 6 days) as described in Example 1.

Botrytis cinerea [2] = assay: Volatile application to strawberries in clamshells, treated clamshell vs fruit transfer (Example 21); type: in vivo; conditions: 0.1 mg/L headspace
Experimental: Eight strawberries (per repetition, in triplicate) are placed in an industry standard 1-lb PET clamshell with the stem-end facing down.
Compound A is then mixed with acetone and 100 μL of the mixture is pipetted into a small glass tube. […] Compound A is then introduced into the cabinet containing the clamshell by using the sublimation device set at 180° C. to achieve a final headspace concentration of 0.1 mg/L and equilibrated at 1° C. for 0.5 or 1 hour.
After incubation, both clamshells are removed from the treatment chamber. One clamshell is undisturbed while the fruit from the second clamshell are immediately transferred into a new untreated clamshell. All clamshells are then held at 1° C. for 5 days and then evaluated during an additional 5 days at 21° C. During the 5 days at 21° C., the fruits are evaluated for gray mold severity (scale 0 to 4, with ≤1 indicating marketable fruit and 4 indicating ≥50% of fruit surface covered by pathogen). […] The treated clamshell produces marketable fruit up to 3 days with 0.5 hour treatment (0.1), whereas fruits in new clamshells are unmarketable (2.7). Similarly, the treated clamshell produces marketable fruit up to 5 days with 1 hour treatment (0.4), whereas fruits in new clamshells are unmarketable (1.6). Thus, treatments where berries remain in the treated clamshells have the best level of control due to the compound further volatilizing over time off of the clamshell surface.

Epidermophyton floccus = assay: In vitro contact assay (Example 26); type: cell-based; conditions: Epidermophyton, 120 h, 5 days at 28 C, 100% control, read-out: MIC (mg/L) Epidermophyton floccus
Experimental: (§1) Half-strength Potato Dextrose Agar (PDA) is amended with a mixture of one of the test compounds in acetone or methanol to a final concentration of 50, 10, 2, 0.4 or 0.08 mg/L. A 3-mL volume of the amended media is added to each well of the microtiter plate. […] The plates are sealed with a clear film and incubated inverted for 5 days at 28° C.

Trichophyton rubrum = assay: In vitro contact assay (Example 26); type: cell-based; conditions: Trichophyton rubrum, 120 h, 5 days at 28 C, 100% control, read-out: MIC (mg/L) Trichophyton rubrum
Experimental: as §1

[3] = system: Trichophyton mentagrophytes; assay: In vitro contact assay (Example 26); type: cell-based; conditions: Trichophyton mentagrophytes, 120 h, 5 days at 28 C, 100% control, read-out: MIC (mg/L) Trichophyton mentagrophytes
Experimental: as §1

[4] = Inoculated Fruit, 1 mg/clamshell, Day 0
[5] = Inoculated Fruit, 1 mg/clamshell, Day 1
[6] = Inoculated Fruit, 1 mg/clamshell, Day 2
[7] = Inoculated Fruit, 1 mg/clamshell, Day 3
[8] = Inoculated Fruit, 1 mg/clamshell, Day 4
[9] = Inoculated Fruit, 1 mg/clamshell, Day 5
[10] = Inoculated Fruit, 1 mg/clamshell, Day 6
[11] = Inoculated Fruit, 5 mg/clamshell, Day 0
[12] = Inoculated Fruit, 5 mg/clamshell, Day 1
[13] = Inoculated Fruit, 5 mg/clamshell, Day 2
[14] = Inoculated Fruit, 5 mg/clamshell, Day 3
[15] = Inoculated Fruit, 5 mg/clamshell, Day 4
[16] = Inoculated Fruit, 5 mg/clamshell, Day 5
[17] = Inoculated Fruit, 5 mg/clamshell, Day 6
[18] = Uninoculated Fruit, 5 mg/clamshell, Day 0
[19] = Uninoculated Fruit, 5 mg/clamshell, Day 1
[20] = Uninoculated Fruit, 5 mg/clamshell, Day 2
[21] = Uninoculated Fruit, 5 mg/clamshell, Day 6

## OB1OCc2cc(F)ccc21 [Compound A, 5-fluoro-1,3-dihydro-1-hydroxy-2,1-benzoxaborole]
Botrytis cinerea [1]; [4]
  Gray Mold Incidence (%): 0.0%
  Gray Mold Severity (0-4): 0.0
Botrytis cinerea [1]; [5]
  Gray Mold Incidence (%): 0.0%
  Gray Mold Severity (0-4): 0.0
Botrytis cinerea [1]; [6]
  Gray Mold Incidence (%): 1.3%
  Gray Mold Severity (0-4): 0.0
Botrytis cinerea [1]; [7]
  Gray Mold Incidence (%): 3.8%
  Gray Mold Severity (0-4): 0.1
Botrytis cinerea [1]; [8]
  Gray Mold Incidence (%): 11.3%
  Gray Mold Severity (0-4): 0.2
Botrytis cinerea [1]; [9]
  Gray Mold Incidence (%): 36.3%
  Gray Mold Severity (0-4): 0.6
Botrytis cinerea [1]; [10]
  Gray Mold Incidence (%): 52.5%
  Gray Mold Severity (0-4): 1.5
Botrytis cinerea [1]; [11]
  Gray Mold Incidence (%): 0.0%
  Gray Mold Severity (0-4): 0.0
Botrytis cinerea [1]; [12]
  Gray Mold Incidence (%): 0.0%
  Gray Mold Severity (0-4): 0.0
Botrytis cinerea [1]; [13]
  Gray Mold Incidence (%): 0.0%
  Gray Mold Severity (0-4): 0.0
Botrytis cinerea [1]; [14]
  Gray Mold Incidence (%): 0.0%
  Gray Mold Severity (0-4): 0.0
Botrytis cinerea [1]; [15]
  Gray Mold Incidence (%): 0.0%
  Gray Mold Severity (0-4): 0.0
Botrytis cinerea [1]; [16]
  Gray Mold Incidence (%): 0.0%
  Gray Mold Severity (0-4): 0.0
Botrytis cinerea [1]; [17]
  Gray Mold Incidence (%): 0.0%
  Gray Mold Severity (0-4): 0.0
Botrytis cinerea [1]; Uninoculated Fruit, 1 mg/clamshell, Day 0
  Gray Mold Incidence (%): 0.0%
Botrytis cinerea [1]; Uninoculated Fruit, 1 mg/clamshell, Day 1
  Gray Mold Incidence (%): 1.9%
Botrytis cinerea [1]; Uninoculated Fruit, 1 mg/clamshell, Day 2
  Gray Mold Incidence (%): 21.6%
Botrytis cinerea [1]; Uninoculated Fruit, 1 mg/clamshell, Day 3
  Gray Mold Incidence (%): 89.5%
Botrytis cinerea [1]; Uninoculated Fruit, 1 mg/clamshell, Day 4
  Gray Mold Incidence (%): 100.0%
Botrytis cinerea [1]; Uninoculated Fruit, 1 mg/clamshell, Day 5
  Gray Mold Incidence (%): 100.0%
Botrytis cinerea [1]; Uninoculated Fruit, 1 mg/clamshell, Day 6
  Gray Mold Incidence (%): 100.0%
Botrytis cinerea [1]; [18]
  Gray Mold Incidence (%): 0.5%
  Gray Mold Severity (0-4): 0.1
Botrytis cinerea [1]; [19]
  Gray Mold Incidence (%): 0.5%
  Gray Mold Severity (0-4): 0.1
Botrytis cinerea [1]; [20]
  Gray Mold Incidence (%): 0.9%
  Gray Mold Severity (0-4): 0.3
Botrytis cinerea [1]; Uninoculated Fruit, 5 mg/clamshell, Day 3
  Gray Mold Incidence (%): 3.3%
Botrytis cinerea [1]; Uninoculated Fruit, 5 mg/clamshell, Day 4
  Gray Mold Incidence (%): 16.2%
Botrytis cinerea [1]; Uninoculated Fruit, 5 mg/clamshell, Day 5
  Gray Mold Incidence (%): 31.9%
Botrytis cinerea [1]; [21]
  Gray Mold Incidence (%): 78.5%
  Gray Mold Severity (0-4): 3.5
Botrytis cinerea [2]; Treated clamshell, treatment time 0.5 hour, Day 1
  Disease Severity (0 to 4): 0.0
Botrytis cinerea [2]; Treated clamshell, treatment time 0.5 hour, Day 3
  Disease Severity (0 to 4): 0.1
Botrytis cinerea [2]; Treated clamshell, treatment time 0.5 hour, Day 5
  Disease Severity (0 to 4): 2.3
Botrytis cinerea [2]; Treated clamshell, treatment time 1 hour, Day 1
  Disease Severity (0 to 4): 0.0
Botrytis cinerea [2]; Treated clamshell, treatment time 1 hour, Day 3
  Disease Severity (0 to 4): 0.0
Botrytis cinerea [2]; Treated clamshell, treatment time 1 hour, Day 5
  Disease Severity (0 to 4): 0.4
Botrytis cinerea [2]; Untreated clamshell (fruit transfer), treatment time 0.5 hour, Day 1
  Disease Severity (0 to 4): 0.0
Botrytis cinerea [2]; Untreated clamshell (fruit transfer), treatment time 0.5 hour, Day 3
  Disease Severity (0 to 4): 2.7
Botrytis cinerea [2]; Untreated clamshell (fruit transfer), treatment time 0.5 hour, Day 5
  Disease Severity (0 to 4): 3.4
Botrytis cinerea [2]; Untreated clamshell (fruit transfer), treatment time 1 hour, Day 1
  Disease Severity (0 to 4): 0.0
Botrytis cinerea [2]; Untreated clamshell (fruit transfer), treatment time 1 hour, Day 3
  Disease Severity (0 to 4): 0.1
Botrytis cinerea [2]; Untreated clamshell (fruit transfer), treatment time 1 hour, Day 5
  Disease Severity (0 to 4): 1.6
Epidermophyton floccus
  MIC: 2 mg/L (≈ 13.2 µM)
Trichophyton rubrum
  MIC: 2 mg/L (≈ 13.2 µM)
[3]
  MIC: 2 mg/L (≈ 13.2 µM)
